# Measurements taken from patent US8815935B2, “Inhibitors of protein prenyltransferases” (The Regents of the University of California, priority 2008, dated 2014).
# Read-outs that look alike come from different tables or passages of the source.
# How the values were obtained:
# Jurkat cells = experiment: Jurkat cell growth inhibition; type: cell-based, human
# Procedure: In Table 4 in cell GI50 values for the growth inhibition of Jurkat cells are reported. The GI50 value is the concentration of a test compound needed to produce 50% growth inhibition in the cell type listed. In Table 4 the isolated yield of each synthetic step for the synthesis of corresponding compounds are also reported.
# (§1) Panc-1 cells (Pancreatic cancer cell line) and Jurkat cells (T-cell leukemia) were treated with 12.5 μM of P5-H6 or 12.5 μM of mP5-H6a for 72 hours. The cell number was counted as described in Example 5.
# (§2) Cell viability was determined by Cell Counting Kit-8 (CCK-8, Dojindo, Kumamoto, Japan) as described previously (31). Cell viability was calculated relative to the DMSO control. Cell cycle profile was analyzed by flow cytometry as described previously (32).
# GGTase-I = target: T1, GGTase-I (Rattus norvegicus, UniProt P53610+Q04631); experiment: In vitro GGTase-I enzyme assay (IC50, kinetics); type: biochemical
# T1 construct: purchased JENA BIOSCIENCE
# Procedure: The GGTase-I assay was carried out using RhoA as a substrate protein, GGTase-I (JENA Bioscience) and [3H]geranylgeranyl pyrophosphate. Incubation was for 30 min at 37° C. GGTase-II (or RabGGTase) assay was carried out using YPTI as a substrate protein, GGTase-II (Calbiochem, San Diego, Calif.) plus REP1 (Calbiochem) and [3H]geranylgeranyl pyrophosphate. Incubation was for 30 min at 37° C. FIGS. 20D-20F show the three dimensional structure of GGTase I (D), FTsse (E) and GGTase II (F) which can be obtained from X-ray diffraction studies of protein crystals.
# GGTase-I and FTase activities were determined by following the incorporation of radiolabeled isoprenoid [^3H]-geranylgeranyl or [^3H]-farnesyl into substrate proteins. FTase or GGTase-I (50 nM) were used to initiate reactions containing 0.4 μM of [^3H]-FPP or 0.5 μM of [^3H]-GGPP and 2 μM of MBP-tagged substrates (K-Ras4B for FTase; RhoA for GGTase-I) in 20 μl of buffer {50 mM Tris-HCl (pH 7.5), 10 mM MgCl2, […] and 5 mM DTT}. Inhibitors were added at the indicated concentrations. The final DMSO concentration was 2.5% for all samples.
# Reactions were carried out for 10 min at 30° C. The reaction mixture was spotted onto a filter paper, treated with 10% trichloroacetic acid (TCA) followed by ethanol and acetone washing. The filter was counted using a scintillation counter. Kinetic assays in which the GGPP concentration was varied employed fixed concentrations of GGTase-I and RhoA, and reactions were carried out for 5 min. Similarly, fixed concentrations of GGTase-I and GGPP were used when the amount of RhoA was varied.
# K562 cells = experiment: K562 cell growth inhibition; type: cell-based, human
# Procedure: K562 cells are a cell line of human erythroleukemia cells. The K562 cells were treated with P3-E5, P5-H6 or GGTI-298 (a known GGTI compound illustrated in FIG. 27) for 72 hours and then cell number was counted using cell counting kit-8 (Dojindo, Gaithersburg, Md.). Cell viability relative to the DMSO control and the known GGTI compound is plotted in FIG. 23.
# as §2
# Capan-2 = Capan-2 cell growth inhibition; type: cell-based, human; conditions: no unit printed there
# Procedure: (§3) In FIG. 9-24 in vitro IC50 values for the GGTase I activity are reported. In Tables 7-15 in cell GI50 values for the growth inhibition of a variety of cancer cell lines (e.g., Jurkat, K562, MDA-MB-231, BT474, MCF7, MiaPaCa2, Aspc-1, Panc-1, Capan-2, CFpac-1, and MCF10a) are reported.
# as §2
# CFpac-1 = CFpac-1 cell growth inhibition; type: cell-based, human; conditions: Homo sapiens, CFPAC-1, Tables 8-15; no unit printed there
# Procedure: as §3, §2
# MiaPaCa2 = MiaPaCa2 cell growth inhibition; type: cell-based, human; conditions: no unit printed there
# Procedure: as §3, §2
# MCF10a = MCF10a cell growth inhibition; type: cell-based
# Text: as §3
# MCF7 = MCF7 cell growth inhibition; type: cell-based, human
# Procedure: as §3, §2
# Aspc-1 = Aspc-1 cell growth inhibition; type: cell-based, human; conditions: Tables 8-15; no unit printed there; listed as P61C4
# Procedure: as §3, §2
# Panc-1 = Panc-1 cell growth inhibition; type: cell-based, human; conditions: Tables 8-15; no unit printed there; listed as P61C4
# Procedure: as §3, §1, §2
# BT474 = BT474 cell growth inhibition; type: cell-based, human; conditions: Tables 8-15; no unit printed there; listed as P61C4
# Procedure: as §3, §2
# [1] = Homo sapiens, Jurkat, Tables 8-15, no unit printed there, read-out: Jurkat GI50
# [2] = Tables 8-15, no unit printed there (Table 7 head: μM unless otherwise specified), read-out: In vitro (GGTase I IC50)
# [3] = Homo sapiens, K562, Tables 8-15, no unit printed there
# [4] = Homo sapiens, MCF-10A, Tables 8-15, no unit printed there
# [5] = Homo sapiens, MCF7, Tables 8-15, no unit printed there
# [6] = Homo sapiens, Jurkat, Tables 4, 6, 7, read-out: Jurkat cell GI50
# [7] = Tables 3, 5, 7, read-out: In vitro (enzyme assay) IC50, GGTase I
# [8] = Tables 4, 6, 7, read-out: Jurkat cell GI50
# [9] = Tables 8-15, no unit printed there, listed as P61C4
# [10] = Tables 8-15, no unit printed there, read-out: Jurkat GI50
# [11] = Tables 8-15, no unit printed there
GI50 (Jurkat cells; [1]) [µM],IC50 (GGTase-I; [2]) [µM],GI50 (K562 cells; [3]) [µM],GI50 (Jurkat cells; [6]) [µM],IC50 (GGTase-I; [7]) [µM],Compound,also measured
5.36,28.9,> 20,,,CC(C)(C)[C@@H]1C=C(C(=O)O)[C@H](c2ccc(Cl)cc2)N1S(=O)(=O)C(C)(C)C,
1.3,0.7,5,,,Cc1ccccc1S(=O)(=O)N1[C@@H](c2ccc(Cl)cc2)C(COCC(=O)N[C@@H](Cc2ccccc2)C(N)=O)=C[C@H]1C(C)(C)C,
,,,,,Cc1ccccc1S(=O)(=O)N1C(c2cccc(Cl)c2)C(C(=O)N[C@@H](CC(C)C)C(N)=O)=CC[C@H]1c1ccc(Cl)cc1 (some centres unmarked) [drawing 202],"GI50 (Capan-2; Homo sapiens, Capan-2, Tables 8-15): 14 µM; GI50 (CFpac-1): 13.7 µM; GI50 (MiaPaCa2; Homo sapiens, MIA PaCa-2, Tables 8-15): 12 µM"
6.1,,6.15,,,Cc1ccccc1S(=O)(=O)N1C(c2cccc(Cl)c2)C(C(=O)N[C@@H](CC(C)C)C(N)=O)=CC[C@H]1c1ccc(Cl)cc1 (some centres unmarked),GI50 (MCF10a; [4]): > 20 µM; GI50 (MCF7; [5]): 10.9 µM
1.76,32.9,10.2,1.76,32.9,CC(C)C[C@H](NC(=O)C1=CC[C@@H](c2cccc(Br)c2)N(S(=O)(=O)c2ccc(F)cc2)C1c1cccc(Cl)c1)C(N)=O (some centres unmarked) [P61-C11],
19,> 50,14,19,> 50,COC(=O)[C@H](Cc1ccccc1)NC(=O)C1=C[C@@H](C(C)(C)C)N(S(=O)(=O)c2ccccc2C)[C@H]1c1ccc(Cl)cc1 [P61-A04],
5.91,> 50,5.9,5.91,> 50,CC(C)(C)[C@@H]1C=C(C(=O)N[C@@H](Cc2ccccc2)C(N)=O)[C@H](c2ccc(Cl)c(Cl)c2)N1S(=O)(=O)C(C)(C)C [P61-D11],
2.76,4.4,8.26,,,CC(C)(C)[C@@H]1C=C(C(=O)O)[C@H](c2ccc(Cl)cc2)N1S(=O)(=O)c1c(Cl)cccc1Cl,
0.32,6.9,1.7,0.32,6.9,CC(C)C[C@H](NC(=O)C1=CC[C@@H](c2cccc(Br)c2)N(S(=O)(=O)c2ccc(F)cc2)[C@H]1c1cccc(Cl)c1)C(N)=O [P61-D03],
,> 50,,,> 50,Cc1ccccc1S(=O)(=O)N1[C@@H](c2ccc(Cl)cc2)C(C(=O)N[C@@H](Cc2ccccc2)C(N)=O)=C[C@H]1C(C)CC(C)(C)C (some centres unmarked) [P61-C04],"GI50 (Jurkat cells; [8]): 6.4 µM; GI50 (Jurkat cells; Tables 8-15, no unit printed there, listed as P61C4, read-out: Jurkat GI50): 6.4 µM; GI50 (Aspc-1): 8.61 µM; GI50 (Capan-2; Tables 8-15, listed as P61C4): 7.5 µM; GI50 (MCF10a; [9]): 11.3 µM; GI50 (Panc-1): 8.6 µM; GI50 (K562 cells; [9]): 5.95 µM; GI50 (MCF7; [9]): 4.71 µM; GI50 (BT474): 10.1 µM; GI50 (MiaPaCa2; Tables 8-15, listed as P61C4): 6.7 µM"
,,,11,1.6,Cc1ccccc1S(=O)(=O)N1[C@@H](c2ccc(Cl)cc2)C(C(N)=O)=C[C@H]1C(C)(C)C,"GI50 (K562 cells; Homo sapiens, K562, Table 7): 4.8 µM"
7.5,> 100,5.8,,,Cc1ccccc1S(=O)(=O)N1C(c2cccc(Cl)c2)C(CO)=CC[C@H]1c1ccc(Cl)cc1 (some centres unmarked),
1.96,,4.33,1.96,,NC(=O)[C@H](Cc1ccccc1)NC(=O)C1=CC[C@@H](c2cccc(Cl)c2)N(S(=O)(=O)c2ccc(Cl)cc2)C1c1cccc(Cl)c1 (some centres unmarked) [P61-D02],"IC50 (GGTase-I; Tables 5, 14, read-out: In vitro (enzyme assay) IC50, GGTase I): 0.6 µM"
,> 50,,,> 50,CC(C)C[C@H](NC(=O)C1=CC[C@@H](c2cccc(Cl)c2)N(S(=O)(=O)c2ccc(Br)cc2)C1c1cccc(Br)c1)C(N)=O (some centres unmarked) [P61-C09],"GI50 (Jurkat cells; [8]): 6.38 µM; GI50 (Jurkat cells; Tables 8-15, no unit printed there, listed as P61C9, read-out: Jurkat GI50): 6.38 µM; GI50 (K562 cells; Tables 8-15, no unit printed there, listed as P61C9): 12.9 µM"
4.86,1.3,7.69,4.86,1.3,NC(=O)[C@H](Cc1ccccc1)NC(=O)C1=CC[C@@H](c2cccc(Br)c2)N(S(=O)(=O)c2ccc(Cl)cc2)C1c1cccc(Cl)c1 (some centres unmarked) [P61-D04],
4.91,> 50,3.63,4.91,> 50,CC(C)(C)[C@@H]1C=C(C(=O)N[C@@H](Cc2ccccc2)C(N)=O)[C@H](c2ccc(Cl)c(Cl)c2)N1S(=O)(=O)c1c(Cl)cccc1Cl [P61-D09],
,,,5.8,2.2,Cc1ccccc1S(=O)(=O)N1[C@@H](c2ccc(Cl)cc2)C(CO)=C[C@H]1C(C)(C)C,"GI50 (K562 cells; Homo sapiens, K562, Table 7): 6 µM"
,,,,,Cc1ccccc1S(=O)(=O)N1C(c2cccc(Cl)c2)C(C(=O)N[C@@H](CC(C)C)C(N)=O)=CC[C@H]1c1ccc(Cl)cc1 (some centres unmarked) [drawing 214],GI50 (Jurkat cells; [10]): 6.1 µM; GI50 (MCF10a; [11]): > 20 µM
12,0.1,17,,,Cc1ccccc1S(=O)(=O)N1[C@@H](c2ccc(Cl)cc2)C(COCC(=O)N[C@@H](Cc2ccccc2)C(=O)O)=C[C@H]1C(C)(C)C,
,,,,,COC(=O)[C@H](Cc1ccccc1)NC(=O)C1=C[C@@H](C(C)(C)C)N(S(=O)(=O)c2ccccc2C)[C@H]1c1ccc(Cl)cc1 [P61A5],GI50 (Jurkat cells; [10]): 10.5 µM; GI50 (K562 cells; [11]): 17 µM
3.51,2.1,6.01,,,COC(=O)[C@H](Cc1ccccc1)NC(=O)COCC1=C[C@@H](C(C)(C)C)N(S(=O)(=O)c2ccccc2C)[C@H]1c1ccc(Cl)cc1,GI50 (MCF10a; [4]): 20 µM; GI50 (MCF7; [5]): 6.78 µM
13,1.4,20,,,Cc1ccccc1S(=O)(=O)N1[C@@H](c2ccc(Cl)cc2)C(C(=O)N[C@@H](Cc2ccccc2)C(=O)O)=C[C@H]1C(C)(C)C [drawing 152],
,2.7,,,2.7,CC(C)(C)[C@@H]1C=C(C(=O)N[C@@H](Cc2ccccc2)C(N)=O)[C@H](c2ccc(Cl)c(Cl)c2)N1S(=O)(=O)C(C)(C)C [P61-E02],"GI50 (Jurkat cells; [8]): 4.57 µM; GI50 (Jurkat cells; Tables 8-15, no unit printed there, listed as P61E2, read-out: Jurkat GI50): 4.57 µM; GI50 (K562 cells; Tables 8-15, no unit printed there, listed as P61E2): 4.22 µM"
,,,4.02,1.3,Cc1ccccc1S(=O)(=O)N1[C@@H](c2ccc(Cl)cc2)C(C(=O)NO)=C[C@H]1C(C)(C)C,"GI50 (MCF10a; Homo sapiens, MCF-10A, Table 7): 11.4 µM; GI50 (K562 cells; Homo sapiens, K562, Table 7): 10.3 µM; GI50 (MCF7; Homo sapiens, MCF7, Table 7): 2.52 µM"
,> 20,,,> 20,NC(=O)[C@H](Cc1ccccc1)NC(=O)C1=CC[C@@H](c2cccc(Br)c2)N(S(=O)(=O)c2ccc(Cl)cc2)C1c1cccc(Cl)c1 (some centres unmarked) [P61-D05],"GI50 (Jurkat cells; [8]): 3.57 µM; GI50 (Jurkat cells; Tables 8-15, no unit printed there, listed as P61D5, read-out: Jurkat GI50): 3.57 µM; GI50 (K562 cells; Tables 8-15, no unit printed there, listed as P61D5): 10.3 µM"
3.15,,7.06,,,CC(C)C[C@H](NC(=O)C1=CC[C@@H](c2cccc(Br)c2)N(S(=O)(=O)c2ccc(Cl)cc2)C1c1cccc(Cl)c1)C(N)=O (some centres unmarked),GI50 (MCF10a; [4]): 14.2 µM; GI50 (MCF7; [5]): 3.43 µM
